From ChEMBL document CHEMBL4602617, “Discovery and optimization of heteroaryl piperazines as potent and selective PI3Kδ inhibitors” (Bioorg Med Chem Lett, 2020)

Key:
[1] = Volume of drug distribution in rat at 0.5 mg/kg, iv or 1 mg/kg, po; format: ADME, organism-based; conditions: in vivo
[2] = target: Protein kinase C eta type (Homo sapiens, UniProt P24723); assay: Inhibition of recombinant full length human His-tagged PRKCH expressed in baculovirus expression system using serine/threonine-7 peptide as substrate incubated for 60 mins in presence of ATP by Z'-LYTE assay
Protein kinase C eta type, sequence (P24723 whole entry): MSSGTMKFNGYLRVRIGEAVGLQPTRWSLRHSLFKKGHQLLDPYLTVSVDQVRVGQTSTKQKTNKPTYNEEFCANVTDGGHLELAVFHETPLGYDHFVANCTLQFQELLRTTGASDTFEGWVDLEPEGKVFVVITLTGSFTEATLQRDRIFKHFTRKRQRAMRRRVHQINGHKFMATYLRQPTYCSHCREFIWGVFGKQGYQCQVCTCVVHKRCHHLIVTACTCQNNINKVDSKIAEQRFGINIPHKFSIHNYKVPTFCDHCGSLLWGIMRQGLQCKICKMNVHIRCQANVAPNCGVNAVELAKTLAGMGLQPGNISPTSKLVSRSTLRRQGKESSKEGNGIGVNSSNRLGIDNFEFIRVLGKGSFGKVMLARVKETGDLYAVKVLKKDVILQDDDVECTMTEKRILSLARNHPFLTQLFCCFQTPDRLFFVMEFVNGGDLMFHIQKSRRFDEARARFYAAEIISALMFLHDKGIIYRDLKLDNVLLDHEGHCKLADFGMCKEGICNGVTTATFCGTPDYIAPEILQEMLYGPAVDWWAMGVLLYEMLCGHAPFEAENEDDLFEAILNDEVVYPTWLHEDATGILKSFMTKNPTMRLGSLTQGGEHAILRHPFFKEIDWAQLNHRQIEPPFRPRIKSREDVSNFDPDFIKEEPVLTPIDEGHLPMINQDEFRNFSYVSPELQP

[3] = target: Dual specificity mitogen-activated protein kinase kinase 2 (Homo sapiens, UniProt P36507); assay: Inhibition of recombinant full length human His-tagged MEK2 expressed in baculovirus expression system using serine/threonine-3 peptide as substrate incubated for 60 mins in presence of ATP by Z'-LYTE assay
[4] = target: Protein kinase C delta type (Homo sapiens, UniProt Q05655); assay: Inhibition of recombinant full length human GST-tagged PRKCD expressed in insect expression system using serine/threonine-7 peptide as substrate incubated for 60 mins in presence of ATP by Z'-LYTE assay
Protein kinase C delta type, sequence (Q05655 whole entry, the tested form may be a part): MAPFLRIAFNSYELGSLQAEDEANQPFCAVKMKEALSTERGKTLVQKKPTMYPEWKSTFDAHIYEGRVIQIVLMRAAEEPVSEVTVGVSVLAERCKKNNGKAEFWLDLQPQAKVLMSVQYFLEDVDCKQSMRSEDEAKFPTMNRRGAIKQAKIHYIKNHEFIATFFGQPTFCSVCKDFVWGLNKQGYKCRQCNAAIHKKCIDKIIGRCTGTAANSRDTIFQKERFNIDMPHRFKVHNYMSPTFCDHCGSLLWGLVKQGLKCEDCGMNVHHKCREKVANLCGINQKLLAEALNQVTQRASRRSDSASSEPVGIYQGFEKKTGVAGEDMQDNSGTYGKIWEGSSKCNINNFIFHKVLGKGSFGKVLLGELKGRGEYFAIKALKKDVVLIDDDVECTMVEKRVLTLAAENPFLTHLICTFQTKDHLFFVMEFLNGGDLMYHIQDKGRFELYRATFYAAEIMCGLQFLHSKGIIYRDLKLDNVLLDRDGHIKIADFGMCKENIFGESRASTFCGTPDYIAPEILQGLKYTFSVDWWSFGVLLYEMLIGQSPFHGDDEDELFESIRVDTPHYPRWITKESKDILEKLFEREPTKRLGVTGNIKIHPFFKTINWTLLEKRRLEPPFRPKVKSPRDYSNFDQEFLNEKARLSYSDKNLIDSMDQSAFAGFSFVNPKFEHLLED

[5] = target: Leucine-rich repeat serine/threonine-protein kinase 2 (Homo sapiens, UniProt Q5S007); assay: Inhibition of recombinant human GST-tagged LRRK2 catalytic domain (970 to 2527 amino acids) expressed in baculovirus expression system using ERM (LRRKtide) peptide as substrate incubated for 60 mins in presence of ATP by Adapta assay
[6] = target: Sodium-dependent dopamine transporter (Homo sapiens) (UniProt Q01959); assay: Displacement of [125I]RTI-55 from full length recombinant human dopamine transporter expressed in CHO-S cells at 10 uM after 3 hrs by radiometric scintillation analysis relative to control; format: cell-based
Sodium-dependent dopamine transporter (Homo sapiens), sequence (Q01959 whole entry): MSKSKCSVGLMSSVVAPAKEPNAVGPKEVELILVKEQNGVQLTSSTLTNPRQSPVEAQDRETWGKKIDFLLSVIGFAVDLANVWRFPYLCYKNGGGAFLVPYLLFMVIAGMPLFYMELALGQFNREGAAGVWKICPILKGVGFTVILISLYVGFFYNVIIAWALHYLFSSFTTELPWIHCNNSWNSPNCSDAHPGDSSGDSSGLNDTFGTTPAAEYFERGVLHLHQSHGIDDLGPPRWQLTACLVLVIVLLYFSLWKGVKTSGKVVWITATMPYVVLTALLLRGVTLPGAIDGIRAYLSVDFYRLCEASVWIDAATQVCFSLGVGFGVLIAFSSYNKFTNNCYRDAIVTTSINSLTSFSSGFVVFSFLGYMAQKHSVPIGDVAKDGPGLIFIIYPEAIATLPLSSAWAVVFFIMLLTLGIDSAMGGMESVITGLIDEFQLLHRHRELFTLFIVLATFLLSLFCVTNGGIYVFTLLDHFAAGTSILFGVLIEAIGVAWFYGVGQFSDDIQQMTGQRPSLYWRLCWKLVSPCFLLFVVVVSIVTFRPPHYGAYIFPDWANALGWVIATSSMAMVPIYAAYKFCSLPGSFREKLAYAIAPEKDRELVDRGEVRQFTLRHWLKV

Aurora kinase B = Aurora kinase B (Homo sapiens, UniProt Q96GD4); assay: Inhibition of recombinant full length His-tagged human AURKB expressed in baculovirus expression system using Ser/Thr-01 peptide as substrate incubated for 60 mins in presence of ATP by Z'-LYTE assay
Aurora kinase B, sequence (Q96GD4 whole entry): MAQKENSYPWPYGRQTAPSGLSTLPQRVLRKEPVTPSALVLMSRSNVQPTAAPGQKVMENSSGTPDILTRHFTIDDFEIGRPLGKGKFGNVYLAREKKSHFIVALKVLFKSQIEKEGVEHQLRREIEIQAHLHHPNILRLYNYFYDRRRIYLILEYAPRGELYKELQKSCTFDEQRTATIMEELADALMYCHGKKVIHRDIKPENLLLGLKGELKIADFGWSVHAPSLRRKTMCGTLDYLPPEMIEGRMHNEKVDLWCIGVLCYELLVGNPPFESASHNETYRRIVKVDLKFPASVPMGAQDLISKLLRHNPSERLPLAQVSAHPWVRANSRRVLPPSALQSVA

[7] = target: Metabotropic glutamate receptor 5 (Homo sapiens) (UniProt P41594); assay: Displacement of [3H]quisqualic acid from full length human recombinant mGlu5 receptor expressed in CHO-K1 cells at 10 uM measured after 120 mins by radiometric scintillation analysis relative to control; format: cell-based
Metabotropic glutamate receptor 5 (Homo sapiens), sequence (P41594 21-1212 limits assumed): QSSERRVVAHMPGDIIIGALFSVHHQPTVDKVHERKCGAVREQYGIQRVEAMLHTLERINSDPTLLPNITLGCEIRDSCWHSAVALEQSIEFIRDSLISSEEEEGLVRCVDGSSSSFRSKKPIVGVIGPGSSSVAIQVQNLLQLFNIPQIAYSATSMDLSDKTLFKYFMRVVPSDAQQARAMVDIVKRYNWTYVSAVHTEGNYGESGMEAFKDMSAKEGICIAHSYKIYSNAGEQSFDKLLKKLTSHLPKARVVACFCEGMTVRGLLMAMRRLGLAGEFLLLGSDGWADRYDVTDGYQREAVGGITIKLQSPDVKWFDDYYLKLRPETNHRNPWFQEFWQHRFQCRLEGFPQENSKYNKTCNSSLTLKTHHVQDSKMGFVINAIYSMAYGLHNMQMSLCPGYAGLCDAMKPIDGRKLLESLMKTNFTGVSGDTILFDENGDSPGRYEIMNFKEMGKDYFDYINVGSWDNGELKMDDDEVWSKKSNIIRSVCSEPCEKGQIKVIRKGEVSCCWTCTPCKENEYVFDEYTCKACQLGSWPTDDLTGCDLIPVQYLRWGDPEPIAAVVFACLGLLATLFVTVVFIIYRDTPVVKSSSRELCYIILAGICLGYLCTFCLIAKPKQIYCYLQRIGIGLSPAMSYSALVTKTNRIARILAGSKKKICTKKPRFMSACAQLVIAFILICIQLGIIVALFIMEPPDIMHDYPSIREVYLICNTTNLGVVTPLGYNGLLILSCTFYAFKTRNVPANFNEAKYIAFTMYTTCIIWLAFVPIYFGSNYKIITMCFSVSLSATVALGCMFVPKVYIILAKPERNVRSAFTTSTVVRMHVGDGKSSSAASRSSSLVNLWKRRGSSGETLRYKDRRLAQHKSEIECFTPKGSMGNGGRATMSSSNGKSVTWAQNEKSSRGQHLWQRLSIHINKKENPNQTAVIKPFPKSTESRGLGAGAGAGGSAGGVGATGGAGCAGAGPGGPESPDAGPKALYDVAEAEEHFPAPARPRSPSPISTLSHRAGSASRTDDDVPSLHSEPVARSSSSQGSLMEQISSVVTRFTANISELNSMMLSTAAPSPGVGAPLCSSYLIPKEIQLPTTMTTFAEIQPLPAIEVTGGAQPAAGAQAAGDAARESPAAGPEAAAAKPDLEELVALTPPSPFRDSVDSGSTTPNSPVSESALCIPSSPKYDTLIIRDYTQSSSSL

[8] = target: Myosin light chain kinase 2, skeletal/cardiac muscle (Homo sapiens, UniProt Q9H1R3); assay: Inhibition of recombinant full length human GST-tagged MYLK2 expressed in baculovirus expression system using […] peptide as substrate incubated for 60 mins in presence of ATP by Z'-LYTE assay
[9] = target: Calcium/calmodulin-dependent protein kinase type 1 (Homo sapiens, UniProt Q14012); assay: Inhibition of full length human CAMK1 alpha expressed in baculovirus expression system using ZIPtide as substrate after 1 hr in presence of ATP by TR-FRET based assay
Calcium/calmodulin-dependent protein kinase type 1, sequence (Q14012 whole entry, the tested form may be a part): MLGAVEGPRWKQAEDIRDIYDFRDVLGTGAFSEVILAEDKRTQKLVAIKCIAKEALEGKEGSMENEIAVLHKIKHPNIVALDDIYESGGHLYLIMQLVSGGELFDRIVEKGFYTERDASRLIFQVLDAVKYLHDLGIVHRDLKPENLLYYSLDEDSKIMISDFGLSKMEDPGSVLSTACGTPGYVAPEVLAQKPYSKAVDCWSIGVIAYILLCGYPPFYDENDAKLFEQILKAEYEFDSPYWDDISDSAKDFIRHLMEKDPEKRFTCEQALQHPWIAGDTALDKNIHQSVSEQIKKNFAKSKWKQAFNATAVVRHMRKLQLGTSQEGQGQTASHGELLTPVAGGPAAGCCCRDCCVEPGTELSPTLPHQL

[10] = target: Ribosomal protein S6 kinase beta-1 (Homo sapiens, UniProt P23443); assay: Inhibition of recombinant human GST-tagged p70S6K catalytic domain expressed in baculovirus expression system using serine/threonine-7 peptide as substrate incubated for 60 mins in presence of ATP by Z'-LYTE assay
Ribosomal protein S6 kinase beta-1, sequence (P23443 whole entry, the tested form may be a part): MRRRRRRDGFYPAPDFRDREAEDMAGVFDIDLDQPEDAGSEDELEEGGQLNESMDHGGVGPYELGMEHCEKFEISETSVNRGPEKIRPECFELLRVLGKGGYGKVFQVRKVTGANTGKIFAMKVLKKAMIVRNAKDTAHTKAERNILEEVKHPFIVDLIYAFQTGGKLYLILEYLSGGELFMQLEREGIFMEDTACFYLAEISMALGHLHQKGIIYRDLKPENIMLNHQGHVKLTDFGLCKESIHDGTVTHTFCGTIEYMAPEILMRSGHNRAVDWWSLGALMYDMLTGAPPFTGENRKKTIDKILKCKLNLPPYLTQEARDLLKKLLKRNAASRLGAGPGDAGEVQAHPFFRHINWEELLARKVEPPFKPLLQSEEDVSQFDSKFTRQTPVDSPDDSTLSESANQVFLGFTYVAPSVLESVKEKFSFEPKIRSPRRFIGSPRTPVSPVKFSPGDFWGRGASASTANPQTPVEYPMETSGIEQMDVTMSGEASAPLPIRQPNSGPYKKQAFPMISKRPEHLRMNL

[11] = target: 5-hydroxytryptamine receptor 1A (Homo sapiens) (UniProt P08908); assay: Displacement of [3H]-8-OH-DPAT from full length human recombinant 5HT1A receptor expressed in CHOK-1 cells at 10 uM measured after 60 mins by radiometric scintillation analysis relative to control; format: cell-based
[12] = target: Serine/threonine-protein kinase MRCK alpha (Homo sapiens, UniProt Q5VT25); assay: Inhibition of recombinant human His-tagged MRCKalpha catalytic domain (1 to 473 residues) expressed in baculovirus expression system using serine/threonine-13 peptide as substrate incubated for 60 mins in presence of ATP by Z'-LYTE assay
[13] = target: Muscarinic acetylcholine receptor M4 (Homo sapiens) (UniProt P08173); assay: Displacement of [3H]N-Methylscopolamine from full length human recombinant Muscarinic M4 receptor expressed in CHOK1 cells at 10 uM measured after 120 mins by radiometric scintillation analysis relative to control; format: cell-based; conditions: CHO-K1
[14] = target: Serine/threonine-protein kinase B-raf (Homo sapiens, UniProt P15056, V600E); assay: Inhibition of […] N-terminal GST-tagged human BRAF V599E mutant (416 to 766 residues) expressed in baculovirus expression system using Ser/Thr 03 as substrate after 1 hr in presence of ATP by Z'-LYTE assay
[15] = target: Beta-3 adrenergic receptor (Homo sapiens) (UniProt P13945); assay: Displacement of [125I]cyanopindolol from full-length recombinant human beta3 adrenergic receptor expressed in HEK293 cell membranes at 10 uM measured after 90 mins by scintillation counting method relative to control
Beta-3 adrenergic receptor (Homo sapiens), sequence (P13945 whole entry, looked up): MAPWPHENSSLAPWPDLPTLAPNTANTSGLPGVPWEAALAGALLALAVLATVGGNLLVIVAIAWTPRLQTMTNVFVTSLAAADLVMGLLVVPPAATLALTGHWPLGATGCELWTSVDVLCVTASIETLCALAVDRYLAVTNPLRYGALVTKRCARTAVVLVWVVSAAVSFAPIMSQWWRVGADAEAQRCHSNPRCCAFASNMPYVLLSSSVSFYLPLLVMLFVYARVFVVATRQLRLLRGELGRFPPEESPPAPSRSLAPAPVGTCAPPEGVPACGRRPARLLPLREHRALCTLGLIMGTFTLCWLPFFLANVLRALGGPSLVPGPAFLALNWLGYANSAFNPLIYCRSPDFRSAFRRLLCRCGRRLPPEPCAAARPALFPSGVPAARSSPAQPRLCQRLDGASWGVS

Homo sapiens = organism: Homo sapiens; assay: Selectivity index, ratio IC50 for inhibition of recombinant human full-length N-terminal His6-tagged p110beta/untagged full-length p85alpha expressed in baculovirus infected Sf21 cells to ratio IC50 for inhibition of recombinant human full-length N-terminal GST-tagged p110delta/untagged full-length p85alpha expressed in baculovirus infected Sf21 cells
[16] = target: Protein-tyrosine kinase 2-beta (Homo sapiens, UniProt Q14289); assay: Inhibition of recombinant full length human N-terminal GST-tagged PTK2B cytoplasmic domain expressed in baculovirus expression system using tyr01 peptide as substrate incubated for 60 mins in presence of ATP by Z'-LYTE assay
[17] = target: Dual specificity tyrosine-phosphorylation-regulated kinase 1A (Homo sapiens, UniProt Q13627); assay: Inhibition of recombinant full length human GST-tagged DYRK1A expressed in baculovirus expression system using serine/threonine-18 peptide as substrate incubated for 60 mins in presence of ATP by Z'-LYTE assay

C[C@@H]1C[C@H]1C(=O)N1CCN(c2cnc(C#N)c(-c3cnn(C)c3)n2)C[C@H]1C
Vd [1]: 1.1 L/kg | IC50 [2]: > 100 µM | IC50 [3]: > 100 µM | IC50 [4]: > 100 µM | IC50 [5]: > 100 µM | inhibition [6]: 1% | IC50 (Aurora kinase B): > 100 µM | inhibition [7]: 8% | IC50 [8]: > 100 µM | IC50 [9]: > 100 µM | IC50 [10]: > 100 µM | inhibition [11]: 9% | IC50 [12]: > 100 µM | inhibition [13]: 3% | IC50 [14]: > 100 µM | inhibition [15]: -1% | Ratio IC50 (Homo sapiens): 2990 | IC50 [16]: > 100 µM | IC50 [17]: > 100 µM
